# Data taken from ChEMBL document CHEMBL3352489, “6-Hydroxyquinolinium salts differing in the length of alkyl side-chain: synthesis and antimicrobial activity” (Bioorg Med Chem Lett, 2014).
# Columns and labels:
# [1] = system: Candida tropicalis; assay: microbe, parasite or virus in culture; format: functional; details: Candida tropicalis, 156, 24 h
# Description: Antifungal activity against Candida tropicalis 156 after 24 hrs by modified standard CSLI M27-A2 method
# [2] = system: Aspergillus fumigatus; assay: microbe, parasite or virus in culture; format: functional; details: Aspergillus fumigatus, 231, 24 h
# Description: Antifungal activity against Aspergillus fumigatus 231 after 24 hrs by modified standard CSLI M27-A2 method
# [3] = system: Enterococcus sp.; assay: microbe, parasite or virus in culture; format: functional; details: J 14365/08, 24 h
# Description: Antibacterial activity against Enterococcus sp. J 14365/08 after 24 hrs by microdilution broth method
# [4] = system: Lichtheimia corymbifera; assay: microbe, parasite or virus in culture; format: functional; details: Lichtheimia corymbifera, 272, 48 h
# Description: Antifungal activity against Absidia corymbifera 272 after 48 hrs by modified standard CSLI M27-A2 method
# [5] = system: Staphylococcus aureus; assay: Bactericidal activity against Staphylococcus aureus CCM 4516/08 after 48 hrs by microdilution broth method; format: functional; details: CCM 4516/08, 48 h, read-out: MBC>99.9
# [6] = system: Candida tropicalis; assay: Fungicidal activity against Candida tropicalis 156 after 48 hrs by modified standard CSLI M27-A2 method; format: functional; details: Candida tropicalis, 156, 48 h
# [7] = system: Lichtheimia corymbifera; assay: microbe, parasite or virus in culture; format: functional; details: Lichtheimia corymbifera, 272, 24 h
# Description: Antifungal activity against Absidia corymbifera 272 after 24 hrs by modified standard CSLI M27-A2 method
# [8] = system: Staphylococcus aureus; assay: Bactericidal activity against Staphylococcus aureus H 5996/08 after 48 hrs by microdilution broth method; format: functional; details: H 5996/08, 48 h, read-out: MBC>99.9
# [9] = system: Trichophyton mentagrophytes; assay: microbe, parasite or virus in culture; format: functional; details: Trichophyton mentagrophytes, 445, 120 h
# Description: Antifungal activity against Trichophyton mentagrophytes 445 after 120 hrs by modified standard CSLI M27-A2 method
# [10] = system: Pichia kudriavzevii; assay: Antifungal activity against Candida krusei E28 after 48 hrs by modified standard CSLI M27-A2 method; format: functional; details: E28, 48 h
# [11] = system: Lichtheimia corymbifera; assay: Fungicidal activity against Absidia corymbifera 272 after 48 hrs by modified standard CSLI M27-A2 method; format: functional; details: Lichtheimia corymbifera, 272, 48 h
# [12] = system: Nakaseomyces glabratus; assay: Fungicidal activity against Candida glabrata 20/I after 48 hrs by modified standard CSLI M27-A2 method; format: functional
# [13] = system: Trichosporon asahii; assay: microbe, parasite or virus in culture; format: functional; details: Trichosporon asahii, 1188, 24 h
# Description: Antifungal activity against Trichosporon asahii 1188 after 24 hrs by modified standard CSLI M27-A2 method
# [14] = Cytotoxicity against CHOK1 cells after 24 hrs by MTT assay; format: ADME, cell-based; details: Cricetulus griseus, CHO-K1, 24 h
# [15] = system: Staphylococcus aureus; assay: microbe, parasite or virus in culture; format: functional; details: CCM 4516/08, 24 h
# Description: Antibacterial activity against Staphylococcus aureus CCM 4516/08 after 24 hrs by microdilution broth method
# [16] = system: Pseudomonas aeruginosa; assay: microbe, parasite or virus in culture; format: functional; details: CCM 1961, 120 h
# Description: Antibacterial activity against Pseudomonas aeruginosa CCM 1961 after 120 hrs by microdilution broth method
# [17] = system: Klebsiella pneumoniae; assay: microbe, parasite or virus in culture; format: functional; details: D 11750/08, 48 h
# Description: Antibacterial activity against Klebsiella pneumoniae D 11750/08 after 48 hrs by microdilution broth method
# [18] = system: Trichophyton mentagrophytes; assay: microbe, parasite or virus in culture; format: functional; details: Trichophyton mentagrophytes, 445, 72 h
# Description: Antifungal activity against Trichophyton mentagrophytes 445 after 72 hrs by modified standard CSLI M27-A2 method
# [19] = system: Escherichia coli; assay: Bactericidal activity against Escherichia coli CCM 4517 after 48 hrs by microdilution broth method; format: functional; details: CCM 4517, 48 h, read-out: MBC>99.9
# [20] = system: Candida albicans; assay: microbe, parasite or virus in culture; format: functional; details: ATCC 44859, 24 h
# Description: Antifungal activity against Candida albicans ATCC 44859 after 24 hrs by modified standard CSLI M27-A2 method
# [21] = system: Enterococcus sp.; assay: microbe, parasite or virus in culture; format: functional; details: J 14365/08, 48 h
# Description: Antibacterial activity against Enterococcus sp. J 14365/08 after 48 hrs by microdilution broth method
# [22] = system: Nakaseomyces glabratus; assay: Antifungal activity against Candida glabrata 20/I after 24 hrs by modified standard CSLI M27-A2 method; format: functional
# [23] = system: Escherichia coli; assay: microbe, parasite or virus in culture; format: functional; details: CCM 4517, 24 h
# Description: Antibacterial activity against Escherichia coli CCM 4517 after 24 hrs by microdilution broth method
# [24] = system: Klebsiella pneumoniae; assay: Bactericidal activity against Klebsiella pneumoniae J 14368/08 after 48 hrs by microdilution broth method; format: functional; details: J 14368/08, 48 h, read-out: MBC>99.9
# [25] = system: Trichosporon asahii; assay: microbe, parasite or virus in culture; format: functional; details: Trichosporon asahii, 1188, 48 h
# Description: Antifungal activity against Trichosporon asahii 1188 after 48 hrs by modified standard CSLI M27-A2 method
# [26] = system: Pseudomonas aeruginosa; assay: microbe, parasite or virus in culture; format: functional; details: CCM 1961, 72 h
# Description: Antibacterial activity against Pseudomonas aeruginosa CCM 1961 after 72 hrs by microdilution broth method
# [27] = system: Staphylococcus epidermidis; assay: microbe, parasite or virus in culture; format: functional; details: H 6966/08, 24 h
# Description: Antibacterial activity against Staphylococcus epidermidis H 6966/08 after 24 hrs by microdilution broth method
# [28] = system: Aspergillus fumigatus; assay: microbe, parasite or virus in culture; format: functional; details: Aspergillus fumigatus, 231, 48 h
# Description: Antifungal activity against Aspergillus fumigatus 231 after 48 hrs by modified standard CSLI M27-A2 method
# [29] = system: Klebsiella pneumoniae; assay: microbe, parasite or virus in culture; format: functional; details: J 14368/08, 48 h
# Description: Antibacterial activity against Klebsiella pneumoniae J 14368/08 after 48 hrs by microdilution broth method
# [30] = system: Klebsiella pneumoniae; assay: Bactericidal activity against Klebsiella pneumoniae D 11750/08 after 24 hrs by microdilution broth method; format: functional; details: D 11750/08, 24 h, read-out: MBC>99.9
# [31] = system: Trichosporon asahii; assay: Fungicidal activity against Trichosporon asahii 1188 after 48 hrs by modified standard CSLI M27-A2 method; format: functional; details: Trichosporon asahii, 1188, 48 h
# [32] = system: Escherichia coli; assay: microbe, parasite or virus in culture; format: functional; details: CCM 4517, 48 h
# Description: Antibacterial activity against Escherichia coli CCM 4517 after 48 hrs by microdilution broth method
# [33] = system: Candida albicans; assay: microbe, parasite or virus in culture; format: functional; details: ATCC 44859, 48 h
# Description: Antifungal activity against Candida albicans ATCC 44859 after 48 hrs by modified standard CSLI M27-A2 method
# [34] = system: Pichia kudriavzevii; assay: Fungicidal activity against Candida krusei E28 after 48 hrs by modified standard CSLI M27-A2 method; format: functional; details: E28, 48 h
# [35] = system: Aspergillus fumigatus; assay: Fungicidal activity against Aspergillus fumigatus 231 after 48 hrs by modified standard CSLI M27-A2 method; format: functional; details: Aspergillus fumigatus, 231, 48 h
# [36] = system: Candida albicans; assay: Fungicidal activity against Candida albicans ATCC 44859 after 48 hrs by modified standard CSLI M27-A2 method; format: functional; details: ATCC 44859, 48 h
# [37] = system: Staphylococcus epidermidis; assay: Bactericidal activity against Staphylococcus epidermidis H 6966/08 after 48 hrs by microdilution broth method; format: functional; details: H 6966/08, 48 h, read-out: MBC>99.9
# [38] = system: Staphylococcus aureus; assay: microbe, parasite or virus in culture; format: functional; details: H 5996/08, 24 h
# Description: Antibacterial activity against Staphylococcus aureus H 5996/08 after 24 hrs by microdilution broth method
# [39] = system: Candida tropicalis; assay: microbe, parasite or virus in culture; format: functional; details: Candida tropicalis, 156, 48 h
# Description: Antifungal activity against Candida tropicalis 156 after 48 hrs by modified standard CSLI M27-A2 method
# [40] = system: Nakaseomyces glabratus; assay: Antifungal activity against Candida glabrata 20/I after 48 hrs by modified standard CSLI M27-A2 method; format: functional
# [41] = system: Pichia kudriavzevii; assay: Antifungal activity against Candida krusei E28 after 24 hrs by modified standard CSLI M27-A2 method; format: functional; details: E28, 24 h
# [42] = system: Staphylococcus aureus; assay: microbe, parasite or virus in culture; format: functional; details: H 5996/08, 48 h
# Description: Antibacterial activity against Staphylococcus aureus H 5996/08 after 48 hrs by microdilution broth method
# [43] = system: Pseudomonas aeruginosa; assay: Bactericidal activity against Pseudomonas aeruginosa CCM 1961 after 120 hrs by microdilution broth method; format: functional; details: CCM 1961, 120 h, read-out: MBC>99.9
# [44] = system: Staphylococcus epidermidis; assay: microbe, parasite or virus in culture; format: functional; details: H 6966/08, 48 h
# Description: Antibacterial activity against Staphylococcus epidermidis H 6966/08 after 48 hrs by microdilution broth method
# [45] = system: Klebsiella pneumoniae; assay: microbe, parasite or virus in culture; format: functional; details: D 11750/08, 24 h
# Description: Antibacterial activity against Klebsiella pneumoniae D 11750/08 after 24 hrs by microdilution broth method
# [46] = system: Trichophyton mentagrophytes; assay: Fungicidal activity against Trichophyton mentagrophytes 445 after 120 hrs by modified standard CSLI M27-A2 method; format: functional; details: Trichophyton mentagrophytes, 445, 120 h
# [47] = system: Enterococcus sp.; assay: Bactericidal activity against Enterococcus sp. J 14365/08 after 48 hrs by microdilution broth method; format: functional; details: J 14365/08, 48 h, read-out: MBC>99.9
# [48] = system: Staphylococcus aureus; assay: microbe, parasite or virus in culture; format: functional; details: CCM 4516/08, 48 h
# Description: Antibacterial activity against Staphylococcus aureus CCM 4516/08 after 48 hrs by microdilution broth method
# [49] = system: Klebsiella pneumoniae; assay: microbe, parasite or virus in culture; format: functional; details: J 14368/08, 24 h
# Description: Antibacterial activity against Klebsiella pneumoniae J 14368/08 after 24 hrs by microdilution broth method
smiles,measurement,setting,value
CCCCCCCCCCCC[n+]1ccccc1,MIC,[1],0.49 µM
same,MIC,[2],3.91 µM
same,MIC95,[3],1.95 µM
same,MIC,[4],125 µM
same,MBC,[5],1.95 µM
same,MFC,[6],3.91 µM
same,MIC,[7],62.5 µM
same,MBC,[8],3.91 µM
same,MIC,[9],3.91 µM
same,MIC,[10],0.49 µM
same,MFC,[11],250 µM
same,MFC,[12],0.49 µM
same,MIC,[13],7.81 µM
same,IC50,[14],39 µM
same,MIC95,[15],0.49 µM
same,MIC95,[16],7.81 µM
same,MIC95,[17],7.81 µM
same,MIC,[18],1.95 µM
same,MBC,[19],3.91 µM
same,MIC,[20],0.98 µM
same,MIC95,[21],3.91 µM
same,MIC,[22],0.49 µM
same,MIC95,[23],1.95 µM
same,MBC,[24],7.81 µM
same,MIC,[25],15.6 µM
same,MIC95,[26],7.81 µM
same,MIC95,[27],0.98 µM
same,MIC,[28],31.2 µM
same,MIC95,[29],7.81 µM
same,MBC,[30],7.81 µM
same,MFC,[31],15.6 µM
same,MIC95,[32],3.91 µM
same,MIC,[33],1.95 µM
same,MFC,[34],0.49 µM
same,MFC,[35],31.2 µM
same,MFC,[36],1.95 µM
same,MBC,[37],3.91 µM
same,MIC95,[38],3.91 µM
same,MIC,[39],1.95 µM
same,MIC,[40],0.49 µM
same,MIC,[41],0.49 µM
same,MIC95,[42],3.91 µM
same,MBC,[43],7.81 µM
same,MIC95,[44],3.91 µM
same,MIC95,[45],3.91 µM
same,MFC,[46],3.91 µM
same,MBC,[47],3.91 µM
same,MIC95,[48],1.95 µM
same,MIC95,[49],7.81 µM
